Literature values, collected in patent US20190203187A1, “CHEMILUMINESCENT WETNESS INDICATOR FOR ABSORBENT PRODUCTS” (International Paper Company, priority 2014, published 2019).

Columns and labels:
[1] = test system: Gaussia luciferase (Gluc)
Renilla Luciferase = target: T1, Renilla Luciferase (Renilla reniformis, UniProt P27652)
T1 sequence (P27652 1-311): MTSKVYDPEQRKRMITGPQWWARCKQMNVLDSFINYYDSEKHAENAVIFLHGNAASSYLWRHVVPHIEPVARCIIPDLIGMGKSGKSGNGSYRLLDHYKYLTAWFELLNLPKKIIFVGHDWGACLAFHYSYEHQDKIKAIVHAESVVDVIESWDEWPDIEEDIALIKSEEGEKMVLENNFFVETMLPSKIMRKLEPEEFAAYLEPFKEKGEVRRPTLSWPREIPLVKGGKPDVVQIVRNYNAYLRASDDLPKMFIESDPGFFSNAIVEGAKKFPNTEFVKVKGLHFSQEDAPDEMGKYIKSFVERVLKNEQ

apoaequorin = target: T2, apoaequorin (Aequorea victoria, UniProt P07164); conditions: for luminescence intensity relative to coelenterazine (native form): coelenterazine-apoaequorin (aequorin) complex
T2 sequence (P07164 8-196): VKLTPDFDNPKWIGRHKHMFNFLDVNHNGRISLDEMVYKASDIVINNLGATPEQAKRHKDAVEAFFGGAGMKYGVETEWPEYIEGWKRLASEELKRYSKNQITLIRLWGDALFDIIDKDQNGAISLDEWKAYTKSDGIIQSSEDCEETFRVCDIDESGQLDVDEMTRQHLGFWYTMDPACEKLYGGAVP

Row | Compound | quality as substrate for Renilla luciferase (Renilla Luciferase) | luminescence intensity relative to coelenterazine (native form) (apoaequorin) | also measured
1 | O=c1c(Cc2ccccc2)nc2c(Cc3ccccc3)[nH]c(-c3ccccc3)cn1-2 [coelenterazine 400a, coelenterazine 400a (2-2′(4-dehydroxy)) coelenterazine] | good substrate | – | oxidation with Gaussia luciferase [1]: does not oxidize well; emission maximum (Renilla Luciferase; substrate for Renilla luciferase, BRET): 400 nm
2 | Oc1ccc(Cc2nc3c(CC4CCCC4)nc(-c4ccc(O)cc4)cn3c2O)cc1 [coelenterazine cp] | – | 15 times | –
3 | Oc1ccc(Cc2nc3c(Cc4ccccc4)nc4c(n3c2O)CCc2cc(O)ccc2-4)cc1 [coelenterazine e] | – | – | quality as substrate for apoaequorin (apoaequorin): poor substrates
4 | Oc1ccc(-c2cn3c(O)c(Cc4ccc(F)cc4)nc3c(CC3CCCC3)n2)cc1 [coelenterazine fcp] | poor substrate | 135 times | –
5 | coelenterazine f | – | 20 times | emission maximum longer than that of the native form (apoaequorin; coelenterazine-apoaequorin complex): about 8 nm
